Assay results reported in ChEMBL document CHEMBL1152066, “7,10-Bis(2-mercapto-2-methyl)propyl-7,10-diazapalmitic acid: a novel, N2S2 ligand for technetium-99m” (Bioorg Med Chem Lett, 1996).
Values joined by “and” are separate entries in the source; they are usually repeats but may differ in a detail not shown here. Equal entries are not always repeated.

Tests used:
Type in all cases: ADME, organism-based
Conditions in all cases: in vivo
[1] = system: Rattus norvegicus; assay: Distribution of radioactivity in kidney of fasted rats following concomitant intravenous administration of [99mTc]7. value expressed as % injected dose / organ
[2] = system: Rattus norvegicus; assay: Distribution of radioactivity in heart of fasted rats following concomitant intravenous administration of [99mTc]-7. value expressed as % injected dose / organ
[3] = system: Rattus norvegicus; assay: Distribution of radioactivity in lung of fasted rats following concomitant intravenous administration of [99mTc]7. value expressed as % injected dose / organ
[4] = system: Rattus norvegicus; assay: (§1) Distribution of radioactivity in stomach of fasted rats following concomitant intravenous administration of [99mTc]7. value expressed as % injected dose / organ
[5] = system: Rattus norvegicus; assay: Distribution of radioactivity in spleen of fasted rats following concomitant intravenous administration of [99mTc]-7. value expressed as % injected dose / organ
[6] = system: Rattus norvegicus; assay: as §1; remark: listed apart in the source

Injected dose/organ [1] | Injected dose/organ [2] | Injected dose/organ [3] | Injected dose/organ [4] | Injected dose/organ [5] | Injected dose/organ [6] [%] | Compound
3.42% and 1.18% | 0.22% and 0.56% | 1.19% and 0.73% | 0.27% and 0.18% | 0.7% and 0.78% |  | CCCCCCN(CCN(CCCCCC(=O)O)CC(C)(C)S)CC(C)(C)S
2.07% and 0.71% | 1.86% and 2.94% | 1.25% and 0.77% | 0.27% | 0.54% and 0.57% | 0.42 | O=C(O)CCCCCCCCCCCCCCc1ccc([125I])cc1
